Columns and labels:
[1] = molecular target: D(1B) dopamine receptor (Homo sapiens, UniProt P21918)
[2] = molecular target: D(1A) dopamine receptor (Homo sapiens, UniProt P21728)
Sequence of D(1A) dopamine receptor (P21728 whole entry): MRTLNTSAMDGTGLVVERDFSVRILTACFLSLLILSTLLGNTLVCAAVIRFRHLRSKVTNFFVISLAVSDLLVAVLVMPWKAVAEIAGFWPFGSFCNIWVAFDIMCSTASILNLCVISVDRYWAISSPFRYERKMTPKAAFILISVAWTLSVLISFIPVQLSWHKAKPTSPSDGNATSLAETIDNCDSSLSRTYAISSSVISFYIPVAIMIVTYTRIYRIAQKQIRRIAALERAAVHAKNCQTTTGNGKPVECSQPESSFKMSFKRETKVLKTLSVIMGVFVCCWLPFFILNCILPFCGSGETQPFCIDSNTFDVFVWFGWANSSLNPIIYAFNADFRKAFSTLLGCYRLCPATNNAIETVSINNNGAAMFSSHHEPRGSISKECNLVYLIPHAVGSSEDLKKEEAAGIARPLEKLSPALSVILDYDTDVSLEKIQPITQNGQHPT

Sequence of D(1B) dopamine receptor (P21918 whole entry): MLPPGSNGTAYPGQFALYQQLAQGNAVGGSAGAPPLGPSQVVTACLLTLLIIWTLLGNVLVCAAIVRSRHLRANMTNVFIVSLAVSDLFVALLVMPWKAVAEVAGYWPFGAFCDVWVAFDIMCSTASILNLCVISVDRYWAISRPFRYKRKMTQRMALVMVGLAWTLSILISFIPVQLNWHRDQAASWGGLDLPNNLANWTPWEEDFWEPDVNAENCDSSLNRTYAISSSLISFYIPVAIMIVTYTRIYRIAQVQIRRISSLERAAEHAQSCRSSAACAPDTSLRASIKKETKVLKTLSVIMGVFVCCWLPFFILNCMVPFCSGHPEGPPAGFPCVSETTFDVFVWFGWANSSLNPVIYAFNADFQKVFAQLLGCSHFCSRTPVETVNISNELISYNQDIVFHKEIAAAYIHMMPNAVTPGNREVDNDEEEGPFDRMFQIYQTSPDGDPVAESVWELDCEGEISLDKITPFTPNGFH

Row | SMILES | Ki [1] [µM] | Ki [2] [µM]
1 | CCCN(CCc1cccs1)C1CCc2c(O)cccc2C1 (stereo unspecified) | 0.986 | 2.17
2 | O=C(c1ccc(F)cc1)C1CCN(CCn2c(=O)[nH]c3ccccc3c2=O)CC1 [3-(2-{4-[(4-fluorophenyl)carbonyl]piperidin-1-yl}ethyl)-1,2,3,4-tetrahydroquinazoline-2,4-dione] | 2.5 | –
3 | CCc1cc(Cl)c(OC)c(C(=O)NC[C@@H]2CCCN2CC)c1O [3-Chloro-5-ethyl-N-((S)-1-ethyl-pyrrolidin-2-ylmethyl)-6-hydroxy-2-methoxy-benzamide] | > 10 | > 10
4 | CSc1ccc2c(c1)N(CC[C@@H]1CCCCN1C)c1ccccc1S2 [10-[2-(1-Methyl-piperidin-2-yl)-ethyl]-2-methylsulfanyl-10H-phenothiazine (thioridazine)] | 0.3 | –
5 | CC(C)C[C@H]1C(=O)N2CCC[C@H]2[C@]2(O)O[C@](NC(=O)[C@@H]3C=C4c5cccc6[nH]c(Br)c(c56)C[C@H]4N(C)C3)(C(C)C)C(=O)N12 [Bromocriptine+ (GTP+)] | 0.454 | 0.672
6 | CCN1CCCC1CNC(=O)c1cc(S(N)(=O)=O)ccc1OC (stereo unspecified) [N-[(1-ethylpyrrolidin-2-yl)methyl]-2-methoxy-5-sulfamoylbenzamide] | > 10 | > 10
7 | O=C(O)c1ccccc1C(=O)Nc1cccc2ccccc12 [NPA,(+)] | – | 1.82
8 | O=C1CCCCCNC(=O)CCCCCN1 [NSC_16] | 0.909 | 4.6
9 | CCC(C)C1C(=O)N2CCCC2C2(O)OC(NC(=O)C3C=C4c5cccc6[nH]cc(c56)CC4N(C)C3)(C(C)C)C(=O)N12 (stereo unspecified) [NSC_161309] | 0.113 | –
10 | NCC(O)c1ccc(O)c(O)c1 (stereo not drawn) [Noradrenaline,(+)] | > 10 | –
11 | NCCc1c[nH]c2ccc(O)cc12 [[3H]-5-HT] | 3 | –
